Structures can show the parent of a compound that is named as a salt. Where two headings read alike, the source gives them in different places.
Tests used:
[1] = Solubility testing in PBS or 0.9% saline; format: physicochemical; conditions: for solubility: aqueous buffer, thermodynamic from solid, PBS
Method: Solubility studies were performed by charging a vial with 5-10 mg of compound followed by the 40 addition of PBS solution or 0.9% saline to achieve a concentration of 100 mg/ml. If solubility was not observed the solution was diluted to concentrations of 50 mg/ml, 25 mg/ml and 4 mg/ml consecutively until complete solubility was observed.

pneumolysin = pneumolysin (Streptococcus pneumoniae serotype 2, UniProt Q04IN8); assay: Inhibition of the haemolytic activity of pneumolysin (sheep erythrocytes); format: cell-based
Method: The basis of this assay is that when pneumolysin is added to red blood cells, it induces their lysis and leads to the release of haemoglobin. In the presence of an inhibitory compound, pneumolysin-induced lysis is abolished, the red blood cells pellet at the bottom of the microtitre plate well and the supernatant is clear. However, if the compound is not inhibitory, the red blood cells are lysed and haemoglobin is released into the supernatant.
Test compound solutions (typically at 5 mM in DMSO) were diluted 1:1 in 100% DMSO. The compounds were then two-fold serially diluted in 100% DMSO across 11 wells of 96-well round-bottomed microtitre plate. PBS was then added to all the wells to achieve a 1:10 dilution of the compound in PBS. Pneumolysin was then added at a concentration equal to its LD100. Plates were then incubated at 37° C. for 30-40 min. After the incubation period, an equal volume of 4% (v/v) sheep erythrocyte suspension was added to each well and the plates incubated again at 37° C., for at least 30 min. Controls with only erythrocytes in PBS (control for no lysis) or erythrocytes plus pneumolysin (control for lysis) were prepared following the same procedure. Following the incubation with the erythrocytes, the Absorbance at 595 nm of each well was measured and the data used to determine the IC50 for each test compound. The IC50 values were determined using non-linear regression curve fitting. For that, the Log of the concentrations of the test compound was plotted against the percentage inhibition, estimated from the A595 values, followed by fitting a Hill Slope to the data.

[2] = Chemical stability assessment in PBS at 37.5° C. (HPLC); format: physicochemical; conditions: buffer, pH 6.2, read-out: Chemical stability at pH 6.2-7.2 (t1/2) (converted)
Method: (§1) Stability studies were carried out by dissolving 1-2 mg of compound in DMSO (1 mL) followed by addition of 0.4 mL of the resulting solution to stirred PBS solution (9.6 mL) at 37.5° C. A sample (ca. 0.5 mL) was immediately taken for HPLC analysis. Further samples were then taken for analysis at various timepoints thereafter. Half-lives were determined from the decrease in concentration of compound with respect to time.
as §1, with “performed” for “carried out”, “ml)” for “mL)”, “ml” for “mL”, “PBS” for “PBS solution”, “(˜0.5 ml)” for “(ca. 0.5 mL)”, “time-points” for “timepoints”

[3] = Conversion of prodrug to parent active compound in human plasma (LC-MS/MS); format: in vitro ADME; conditions: 37° C., 10 μM start; for [ ] (μM) Prodrug remaining, t0 min.: 0 min; for [ ] (μM) Prodrug remaining, t15 min.: 15 min; for [ ] (μM) Prodrug remaining, t30 min.: 30 min; for [ ] (μM) Prodrug remaining, t60 min.: 60 min
Method: (§2) The samples were then analysed by LC-MS/MS to obtain the amount of parent active compound appearing and prodrug derivative remaining over time.
(§3) Prodrug derivatives were assessed in the mouse, rat or human plasma stability assay at a concentration of 10 μM. Test compounds were diluted in DMSO to a final stock concentration of 10 mM. For the purpose of the assay, the stocks prepared were further diluted in DMSO to a concentration of 400 μM and 5 μL were added to 195 μL of mouse, rat or human plasma (pH 7.4) and then incubated at 37° C. The final concentration of DMSO in the plate was 2.5% (v/v). Reactions were terminated at 0, 15, 30, 60 and 120 min after incubation by adding 400 μl of acetonitrile containing 0.55 μM metoprolol and 1% (v/v) formic acid. The plate was then centrifuged at 3000 rpm, for 45 min, at 4° C. 80 μL of supernatant were transferred into a conical bottom 96 well glass coated plate. 40 μL of water were added prior to analysis for prodrug derivative and active species by LC-MS/MS. This assay was performed by a contract research organisation, Cyprotex Discovery Limited, UK, at the request of the inventors at Leicester.
(§4) (1) The parent active compound was quantified using a 6 point calibration curve prepared in deactivated mouse, rat or human plasma. (2) The percentage of prodrug compound remaining at each time point relative to 0 min sample was calculated from LC-MS/MS peak area ratios (compound peak area/internal standard peak area). This percentage was then used to determine the concentration of the prodrug compound at each time point in reference to the starting concentration (10 μM) at time 0 min.

[4] = Conversion of prodrug to parent active compound in rat plasma (LC-MS/MS); format: in vitro ADME; conditions: 37° C., 10 μM start; for [ ] (μM) Prodrug remaining, t0 min.: 0 min; for [ ] (μM) Prodrug remaining, t15 min.: 15 min; for [ ] (μM) Prodrug remaining, t30 min.: 30 min; for [ ] (μM) Prodrug remaining, t60 min.: 60 min; for [ ] (μM) Prodrug remaining, t120 min.: 120 min
Method: as §2, §3, §4

[5] = Conversion of prodrug to parent active compound in mouse plasma (LC-MS/MS); format: in vitro ADME; conditions: 37° C., 10 μM start; for [ ] (μM) Prodrug remaining, t0 min.: 0 min; for [ ] (μM) Prodrug remaining, t15 min.: 15 min; for [ ] (μM) Prodrug remaining, t30 min.: 30 min; for [ ] (μM) Prodrug remaining, t60 min.: 60 min; for [ ] (μM) Prodrug remaining, t120 min.: 120 min
Method: as §2, §3, §4

Chain of pneumolysin (Q04IN8 whole entry): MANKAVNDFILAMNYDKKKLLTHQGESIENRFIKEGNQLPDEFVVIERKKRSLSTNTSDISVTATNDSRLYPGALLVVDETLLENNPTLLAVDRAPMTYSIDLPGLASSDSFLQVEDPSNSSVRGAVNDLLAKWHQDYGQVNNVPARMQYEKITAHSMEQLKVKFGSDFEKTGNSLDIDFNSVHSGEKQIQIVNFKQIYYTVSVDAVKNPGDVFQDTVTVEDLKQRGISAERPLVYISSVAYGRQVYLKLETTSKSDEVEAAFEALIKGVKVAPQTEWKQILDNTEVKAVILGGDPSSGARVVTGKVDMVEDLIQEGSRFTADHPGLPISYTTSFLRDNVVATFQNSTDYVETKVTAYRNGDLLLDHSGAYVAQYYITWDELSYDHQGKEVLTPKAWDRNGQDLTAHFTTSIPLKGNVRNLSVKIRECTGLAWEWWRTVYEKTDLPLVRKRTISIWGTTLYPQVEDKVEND

CCOC(=O)c1c(O)c(O)c(C(=O)N(C)C)n1-c1ccc(OC)cc1 [UL1-012, Ethyl 5-(dimethylcarbamoyl)-3,4-dihydroxy-1-(4-methoxyphenyl)-1H-pyrrole-2-carboxylate]
Solubility in 0.9% (w/v) saline, pH 6.5 or PBS pH 7.2 ([1]; result in words): Not soluble
IC50 (pneumolysin; Table 1, pneumolysin at LD100, sheep erythrocytes, 37° C., read-out: IC50): 200 nM
IC50 (pneumolysin; Table 2, pneumolysin at LD100, sheep erythrocytes, 37° C., read-out: IC50): 200 nM
half-life [2]: 1.02 h

COc1ccc(-n2c(C(=O)N(C)C)c(O)c(O)c2C(=O)N2CCN(C)CC2)cc1 [UL1-027, 3,4-Dihydroxy-1-(4-methoxyphenyl)-N,N-dimethyl-5-(4-methylpiperazine-1-carbonyl)-1H-pyrrole-2-carboxamide]
IC50 (pneumolysin): 200 nM

CCOC(=O)c1c(OC(=O)c2ccc(COP(=O)([O-])O)cc2)c(OC(=O)c2ccc(COP(=O)([O-])O)cc2)c(C(=O)N(C)C)n1-c1ccc(OC)cc1.[Na+].[Na+] [UL6-008, Sodium ((((2-(dimethylcarbamoyl)-5-(ethoxycarbonyl)-1-(4-methoxyphenyl)-1H-pyrrole-3,4-diyl)bis(oxy))bis(carbonyl))bis(4,1-phenylene))bis(methylene) bis(hydrogenphosphate)]
[ ] (μM) Prodrug remaining, t0 min. [3]: 10.00 µM
[ ] (μM) Prodrug remaining, t15 min. [3]: 4.89 µM
[ ] (μM) Prodrug remaining, t30 min. [3]: 5.10 µM
[ ] (μM) Prodrug remaining, t60 min. [3]: 6.06 µM
[ ] (μM) Prodrug remaining, t120 min. ([3]; 120 min): 4.52 µM
[ ] (μM) Prodrug remaining, t0 min. [4]: 10.00 µM
[ ] (μM) Prodrug remaining, t15 min. [4]: 2.90 µM
[ ] (μM) Prodrug remaining, t30 min. [4]: 1.00 µM
[ ] (μM) Prodrug remaining, t60 min. [4]: 0.21 µM
[ ] (μM) Prodrug remaining, t120 min. [4]: 0.07 µM
solubility ([1]; pH 6): ≥ 100 mg/mL
IC50 (pneumolysin): 1900 nM
half-life [2]: 144 h
[ ] (μM) Prodrug remaining, t0 min. [5]: 10.00 µM
[ ] (μM) Prodrug remaining, t15 min. [5]: 4.53 µM
[ ] (μM) Prodrug remaining, t30 min. [5]: 1.70 µM
[ ] (μM) Prodrug remaining, t60 min. [5]: 0.47 µM
[ ] (μM) Prodrug remaining, t120 min. [5]: 0.09 µM

COc1ccc(-n2c(C(=O)N(C)C)c(OC(=O)c3cccc(COP(=O)(O)O)c3)c(OC(=O)c3cccc(COP(=O)(O)O)c3)c2C(=O)N(C)C)cc1.[Na+].[Na+] [UL6-006, Sodium ((((2,5-bis(dimethylcarbamoyl)-1-(4-methoxyphenyl)-1H-pyrrole-3,4-diyl)bis(oxy))bis(carbonyl))bis(3,1-phenylene))bis(methylene) bis(hydrogenphosphate)]
[ ] (μM) Prodrug remaining, t0 min. [3]: 10.00 µM
[ ] (μM) Prodrug remaining, t15 min. [3]: 2.15 µM
[ ] (μM) Prodrug remaining, t30 min. [3]: 0.05 µM
[ ] (μM) Prodrug remaining, t60 min. [3]: 0.01 µM
[ ] (μM) Prodrug remaining, t0 min. [4]: 10.00 µM
[ ] (μM) Prodrug remaining, t15 min. [4]: 8.90 µM
[ ] (μM) Prodrug remaining, t30 min. [4]: 1.17 µM
[ ] (μM) Prodrug remaining, t60 min. [4]: 0.21 µM
[ ] (μM) Prodrug remaining, t120 min. [4]: 0.07 µM
solubility ([1]; pH 5-6): ≥ 50 mg/mL
IC50 (pneumolysin): 300 nM
half-life [2]: 29.5 h
[ ] (μM) Prodrug remaining, t0 min. [5]: 10.00 µM
[ ] (μM) Prodrug remaining, t15 min. [5]: 2.05 µM
[ ] (μM) Prodrug remaining, t30 min. [5]: 0.79 µM
[ ] (μM) Prodrug remaining, t60 min. [5]: 0.10 µM
[ ] (μM) Prodrug remaining, t120 min. [5]: 0.04 µM

COc1ccc(-n2c(C(=O)N(C)C)c(OC(=O)C(C)C)c(OC(=O)C(C)C)c2C(=O)N2CCN(C)CC2)cc1.Cl [UL6-002, 2-(Dimethylcarbamoyl)-1-(4-methoxyphenyl)-5-(4-methylpiperazine-1-carbonyl)-1H-pyrrole-3,4-diyl bis(2-methylpropanoate) hydrochloride]
IC50 (pneumolysin): 2000 nM
[ ] (μM) Prodrug remaining, t0 min. [5]: 10.00 µM
[ ] (μM) Prodrug remaining, t15 min. [5]: 0.00 µM
[ ] (μM) Prodrug remaining, t30 min. [5]: 0.00 µM
[ ] (μM) Prodrug remaining, t60 min. [5]: 0.02 µM
[ ] (μM) Prodrug remaining, t120 min. [5]: 0.00 µM

COc1ccc(-n2c(C(=O)N(C)C)c(OC(=O)C(C)(C)C)c(OC(=O)C(C)(C)C)c2C(=O)N2CCN(C)CC2)cc1 [UL6-004, 2-(Dimethylcarbamoyl)-1-(4-methoxyphenyl)-5-(4-methylpiperazine-1-carbonyl)-1H-pyrrole-3,4-diyl bis(2,2-dimethylpropanoate) hydrochloride]
IC50 (pneumolysin): 1600 nM
[ ] (μM) Prodrug remaining, t0 min. [5]: 10.00 µM
[ ] (μM) Prodrug remaining, t15 min. [5]: 10.00 µM
[ ] (μM) Prodrug remaining, t30 min. [5]: 9.88 µM
[ ] (μM) Prodrug remaining, t60 min. [5]: 9.80 µM
[ ] (μM) Prodrug remaining, t120 min. [5]: 9.63 µM

COc1ccc(-n2c(C(=O)N(C)C)c(OC(=O)C(C)C)c(OC(=O)C(C)C)c2C(=O)N(C)C)cc1 [UL1-114, 2,5-Bis(dimethylcarbamoyl)-1-(4-methoxyphenyl)-1H-pyrrole-3,4-diyl bis(2-methylpropanoate)]
IC50 (pneumolysin): 19500 nM

Reference: patent US20160130224A1, “Novel Pyrrole Derivatives” (priority 2013, published 2016)
